Experimental data published in US20150132342A1, “NOVEL IMMUNE ACTIVATORS: SUBSTITUTE 4-AMINOQUINAZOLINES” (The Regents of the University of California, priority 2013, published 2015).

How the values were obtained:
human TLR4/MD-2 = biological target: T1, human TLR4/MD-2 (Homo sapiens, UniProt O00206+Q9Y6Y9); experiment: BMDM from transgenic mice expressing human TLR4/MD-2 (IL-6, IP-10); format: cell-based; conditions: BMDM from human TLR4/MD-2 transgenic mice deficient for murine TLR4/MD-2
T1 construct: expressed in transfected cells; host or cells: bone marrow derived macrophages of human TLR4 transgenic mice on a murine TLR4/MD-2 null C57BL/6 background (gift of Dr. L. Hajjar)
Source text: Animals. Seven to 9 week-old C57BL/6 (wild type, WT) and Cd14^−/− (C57BL/6 background) mice were purchased from the Jackson Laboratories (Bar Harbor, Mass.). Tlr4^−/− mice (C57BL/6 background) were a gift from Dr. Shizuo Akira (Osaka University, Japan) and were backcrossed for 10 generations onto the C57BL/6 background at University of California, San Diego (UCSD). MD-2^−/− mice (C57BL/6 background) were originally generated by Dr. K. Miyake (University of Tokyo, Tokyo, Japan) and were kindly provided by Dr. L. Hajjar (University of Washington, Seattle, Wash.). Human TLR4 transgenic mice on murine TLR4/MD-2 null C57BL/6 background were kindly provided by Dr. L. Hajjar.^3 All animal experiments were approved by the UCSD Institutional Animal Care and Use Committee.
In vitro cytokine induction in bone marrow derived dendritic cells (BMDC) and macrophages (BMDM). […] The levels of IL-6 or IP-10 in the culture supernatants were determined by ELISA (BD Biosciences, La Jolla, Calif.).^5 Finally, all levels of cytokine release were normalized to those of LPSstimulation within each experiment, set at 100.

[1] = system: human TLRs (TLR2, TLR3, TLR4/MD-2/CD14, TLR5, TLR7, TLR8 or TLR9); experiment: Human TLR-transfected HEK293 NF-κB SEAP reporter cell panel; format: cell-based; conditions: 10 μM, 20-24 h
Description: To identify the target receptor, we used HEK293 cells stably transfected with the following human TLRs (TLR2, TLR3, TLR4/MD-2/CD14, TLR5, TLR7, TLR8 or TLR9) along with an NF-κB activation reporter producing Secreted Alkaline Phosphatase (SEAP, FIG. 1A). To further confirm that TLR4 was indeed the receptor, compound 1a was assayed for IL-6 production in mBMDCs from wild type and TLR4 deficient mice (FIG. 1B). […] TLR4 signals through two distinct pathways, leading respectively to NF-κB dependent cytokines and type I interferon (IFN) production. Several naturally occurring TLR4 ligands and MPLA have been reported to require CD14 to activate the IFN regulatory pathway. The hTLR4 reporter cell line (FIG. 1A) also overexpresses hMD-2 and hCD14, which are TLR4 accessory proteins.
In vitro assays using TLR reporter cell lines. Murine or humanTLR4 HEK Blue™ cells (Invivogen, 2.5×10^4 cells per well of a 96 well plate), or NF-κB/SEAPorter™ HEK 293 cells (Imgenex, San Diego, Calif.) for human TLR2, TLR3, TLR5, TLR7, TLR8, or TLR9 (5×10^4 cells per well of 96 well plate) were incubated with graded doses of the test compound. […] Secreted alkaline phosphatase (SEAP) activity in the supernatants was determined by a colorimetric assay, using either the SEAPorter Assay Kit (Imgenex, San Diego, Calif.), with absorbance read at 405 nm, or QuantiBlue (Invivogen), with absorbance read at 630 nm. […]

human PBMC [2] = experiment: MTT viability of human PBMC; format: cell-based; conditions: 10 μM, 18 h incubation
human PBMC [3] = experiment: CD80 and CD83 expression in CD11c+ HLA-DR+ human PBMC (flow cytometry); format: cell-based; conditions: 5 μM overnight; CD11c+HLA-DR+ gated population
Description: FIG. 2. Compound 1a induces type I IFN and expression of co-stimulatory molecules. A) Human PBMC were incubated with compound 1a (10 μM), LPS (10 ng/mL), or vehicle overnight. The release of type I IFN in the culture supernatants was measured by luciferase release in L929-ISRE reporter cells. Data shown are mean±SEM of triplicates. B) Compound 1a- or vehicle-treated wild type or Tlr4^−/−mBMDC were stained for CD11c and either CD40, CD80, or CD86. The expression levels of CD40, CD80, or CD86 were evaluated in the gated CD11c^+ population. DMSO 0.5% served as the vehicle control. C) Human PBMC were incubated with compound 1a (5 μM) overnight. CD80 and CD83 expression in gated CD11c^+ HLA-DR^+ population was analyzed by flow cytometer. Data are representative of two independent experiments showing similar results.
To evaluate whether treatment of DCs with this compound can induce maturation in these cells, mBMDC prepared from wild type or TLR4 deficient mice were exposed to compound 1a and then assayed for expression of co-stimulatory molecules CD40, CD80, and CD86 in the CD11c+ population (FIG. 2B). […] Induction of co-stimulatory molecules by compound 1a was also confirmed in human PBMC.

HepG2 cells = experiment: MTT assay in HepG2 cells; format: cell-based; conditions: compounds tested at 10 μM; normalized with OD570-650 of vehicle treatment; in % (unit assumed)
THP-1 cells = experiment: CellSensor NF-κB-bla THP-1 FRET β-lactamase reporter assay; format: cell-based, human; conditions: graded concentrations, normalized to LPS
Description: The assay with CellSensor® NF-κB-bla THP-1 cells was performed almost identically to that with CellSensor® NF-κB-bla RAW 264.7 cells, except that cells were harvested, resuspended, and plated in RPMI (plus 10% dialyzed FBS, 0.1 mM non-essential amino acids, 1 mM sodium pyruvate, 100 U/ml penicillin and 100 μg/ml streptomycin) and incubated with drugs for only 5 h prior to addition of the 6× substrate mixture. Plates were then incubated for 2 h prior to measurement of fluorescence.

T1 sequence (O00206 24-839): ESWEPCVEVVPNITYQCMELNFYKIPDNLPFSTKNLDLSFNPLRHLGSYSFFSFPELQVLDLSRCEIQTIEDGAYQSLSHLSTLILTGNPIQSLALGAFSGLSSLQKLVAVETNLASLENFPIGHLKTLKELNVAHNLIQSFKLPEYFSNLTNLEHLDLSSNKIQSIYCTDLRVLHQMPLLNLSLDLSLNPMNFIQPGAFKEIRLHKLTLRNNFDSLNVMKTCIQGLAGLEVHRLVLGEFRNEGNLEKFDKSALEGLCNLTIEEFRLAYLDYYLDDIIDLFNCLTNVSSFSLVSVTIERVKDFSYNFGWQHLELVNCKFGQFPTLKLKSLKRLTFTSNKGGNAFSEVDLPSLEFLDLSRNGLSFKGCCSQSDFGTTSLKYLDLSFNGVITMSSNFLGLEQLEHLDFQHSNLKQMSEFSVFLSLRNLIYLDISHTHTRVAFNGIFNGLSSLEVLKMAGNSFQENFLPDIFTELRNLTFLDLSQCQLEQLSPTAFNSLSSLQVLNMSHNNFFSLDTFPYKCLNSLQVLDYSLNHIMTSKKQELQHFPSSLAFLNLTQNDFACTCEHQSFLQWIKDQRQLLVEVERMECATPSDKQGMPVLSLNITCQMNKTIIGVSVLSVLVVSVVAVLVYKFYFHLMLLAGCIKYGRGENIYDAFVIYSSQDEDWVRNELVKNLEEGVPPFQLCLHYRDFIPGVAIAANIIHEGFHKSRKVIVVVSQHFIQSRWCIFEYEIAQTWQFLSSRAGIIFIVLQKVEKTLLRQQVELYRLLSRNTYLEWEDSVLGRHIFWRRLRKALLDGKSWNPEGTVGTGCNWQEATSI
T1 sequence (Q9Y6Y9 19-160): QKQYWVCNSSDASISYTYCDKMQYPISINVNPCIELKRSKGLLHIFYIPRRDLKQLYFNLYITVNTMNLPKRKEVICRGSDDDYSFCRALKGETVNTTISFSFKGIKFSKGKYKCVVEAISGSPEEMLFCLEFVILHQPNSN

CCOC(=O)c1nc(Nc2cc(Oc3ccccc3)cc([N+](=O)[O-])c2)c2ccccc2n1 [Compound 1a, Ethyl 4-((3-nitro-5-phenoxyphenyl)amino)quinazoline-2-carboxylate]
Activation of transgenic human TLR4/MD-2 complex relative to mouse TLR4/MD-2 (human TLR4/MD-2): to a greater extent
NF-κB activation (SEAP) across TLR transfected cells [1]: only those expressing TLR4/MD-2/CD14 responded
Viability by MTT assay (human PBMC [2]): 112±2.1%
Expression of CD80 and CD83 (human PBMC [3]): increased expression of CD80 and CD83
HepG2 MT (HepG2 cells): 93.5
NF-κB activation potency, human THP-1 versus mouse RAW264.7 (THP-1 cells): significantly more potent
